Reference: patent publication US20230085307A1, “PYRIDAZINONE COMPOUND AND HERBICIDE” (NISSAN CHEMICAL CORPORATION, priority 2019, published 2023)

Legend:
[1] = test system: wild oat; test: Test Example 5: herbicidal effect by foliage application, plastic box (Table 20, symbol I); format: in vivo, wild oat (Avena fatua); conditions: foliage application, 320 g/ha, three weeks after application
How it was run: (§1)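 Foliar spray test: emulsion formulation diluted in water to a set application rate, sprayed onto 14-day-old plants raised in diluvial soil at 25° C to 30° C under glass. Both herbicidal effect and crop effect rated visually three weeks later.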

[2] = test system: green foxtail; test: Test Example 4: herbicidal effect by soil treatment (Table 19, symbol G); format: in vivo, green foxtail (Setaria viridis); conditions: amount of applied herbicide 320 g/ha
How it was run: (§2)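 Herbicidal effect was rated 3 weeks after treatment, using the scoring criteria of an earlier test. The compound, formulated as an emulsion and diluted in water to a set herbicide amount, had been sprayed uniformly on soil over freshly sown seeds. Growth took place in a greenhouse at 25° C. to 30° C.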

[3] = test system: persian speedwell; test: Test Example 4: herbicidal effect by soil treatment (Table 19, symbol R); format: in vivo, Persian speedwell (Veronica persica); conditions: amount of applied herbicide 320 g/ha
How it was run: as §2

[4] = test system: persian speedwell; test: Test Example 5: herbicidal effect by foliage application, plastic box (Table 20, symbol R); format: in vivo, Persian speedwell (Veronica persica); conditions: foliage application, 320 g/ha, three weeks after application
How it was run: as §1

[5] = test system: chickweed; test: Test Example 5: herbicidal effect by foliage application, plastic box (Table 20, symbol P); format: in vivo, common chickweed (Stellaria media); conditions: foliage application, 320 g/ha, three weeks after application
How it was run: as §1

[6] = test system: southern crabgrass; test: Test Example 4: herbicidal effect by soil treatment (Table 19, symbol F); format: in vivo, southern crabgrass (Digitaria ciliaris); conditions: amount of applied herbicide 320 g/ha
How it was run: as §2

[7] = test system: green foxtail; test: Test Example 5: herbicidal effect by foliage application, plastic box (Table 20, symbol G); format: in vivo, green foxtail (Setaria viridis); conditions: foliage application, 320 g/ha, three weeks after application
How it was run: as §1

[8] = test system: velvetleaf; test: Test Example 4: herbicidal effect by soil treatment (Table 19, symbol M); format: in vivo, velvetleaf (Abutilon theophrasti); conditions: amount of applied herbicide 320 g/ha
How it was run: as §2

[9] = test system: false cleavers; test: Test Example 5: herbicidal effect by foliage application, plastic box (Table 20, symbol Q); format: in vivo, false cleavers (Galium spurium); conditions: foliage application, 320 g/ha, three weeks after application
How it was run: as §1

[10] = test system: barnyard grass; test: Test Example 3: herbicidal effect by foliage application, Wagner pot (Table 18, symbol H); format: in vivo, barnyard grass (Echinochloa crus-galli); conditions: 320 g/ha
How it was run: (§3)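 Plants were sown in alluvial soil held under 0.1–0.5 cm standing water and grown 14 days in a greenhouse at 25–30 °C. An emulsifiable formulation, water-diluted to the set dose, was then sprayed onto the foliage, and effects were scored three weeks later using previously defined criteria.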

[11] = test system: lambsquarters; test: Test Example 5: herbicidal effect by foliage application, plastic box (Table 20, symbol O); format: in vivo, lambsquarters (Chenopodium album); conditions: foliage application, 320 g/ha, three weeks after application
How it was run: as §1

[12] = test system: Chinese sprangletop; test: Test Example 3: herbicidal effect by foliage application, Wagner pot (Table 18, symbol D); format: in vivo, chinese sprangletop (Leptochloa chinensis); conditions: 320 g/ha
How it was run: as §3

[13] = test system: oval-leafed pondweed; test: Test Example 2: herbicidal activity, application during weed generation under submerged conditions (Table 17, symbol C); format: in vivo, oval-leafed pondweed (Monochoria vaginalis); conditions: AAH 320 g/ha; application during weed generation, submerged conditions
How it was run: (§4)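 Herbicide emulsion, diluted with water to the chosen amount, is applied onto 4 cm floodwater over alluvial soil where the weeds were co-sown and raised at 25–30° C. Application timing: 1–2 leaves. Assessment: three weeks afterwards.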

[14] = test system: redroot pigweed; test: Test Example 5: herbicidal effect by foliage application, plastic box (Table 20, symbol N); format: in vivo, redroot pigweed (Amaranthus retroflexus); conditions: foliage application, 320 g/ha, three weeks after application
How it was run: as §1

[15] = test system: lambsquarters; test: Test Example 4: herbicidal effect by soil treatment (Table 19, symbol O); format: in vivo, lambsquarters (Chenopodium album); conditions: amount of applied herbicide 320 g/ha
How it was run: as §2

[16] = test system: late watergrass; test: Test Example 2: herbicidal activity, application during weed generation under submerged conditions (Table 17, symbol A); format: in vivo, late watergrass (Echinochloa oryzicola); conditions: AAH 320 g/ha; application during weed generation, submerged conditions
How it was run: as §4

[17] = test system: chickweed; test: Test Example 4: herbicidal effect by soil treatment (Table 19, symbol P); format: in vivo, common chickweed (Stellaria media); conditions: amount of applied herbicide 320 g/ha
How it was run: as §2

[18] = test system: Italian ryegrass; test: Test Example 5: herbicidal effect by foliage application, plastic box (Table 20, symbol K); format: in vivo, Italian ryegrass (Lolium multiflorum); conditions: foliage application, 320 g/ha, three weeks after application
How it was run: as §1

[19] = test system: barnyard grass; test: Test Example 4: herbicidal effect by soil treatment (Table 19, symbol H); format: in vivo, barnyard grass (Echinochloa crus-galli); conditions: amount of applied herbicide 320 g/ha
How it was run: as §2

[20] = test system: redroot pigweed; test: Test Example 4: herbicidal effect by soil treatment (Table 19, symbol N); format: in vivo, redroot pigweed (Amaranthus retroflexus); conditions: amount of applied herbicide 320 g/ha
How it was run: as §2

[21] = test system: wild oat; test: Test Example 4: herbicidal effect by soil treatment (Table 19, symbol I); format: in vivo, wild oat (Avena fatua); conditions: amount of applied herbicide 320 g/ha
How it was run: as §2

[22] = test system: false cleavers; test: Test Example 4: herbicidal effect by soil treatment (Table 19, symbol Q); format: in vivo, false cleavers (Galium spurium); conditions: amount of applied herbicide 320 g/ha
How it was run: as §2

[23] = test system: velvetleaf; test: Test Example 5: herbicidal effect by foliage application, plastic box (Table 20, symbol M); format: in vivo, velvetleaf (Abutilon theophrasti); conditions: foliage application, 320 g/ha, three weeks after application
How it was run: as §1

[24] = test system: barnyard grass; test: Test Example 5: herbicidal effect by foliage application, plastic box (Table 20, symbol H); format: in vivo, barnyard grass (Echinochloa crus-galli); conditions: foliage application, 320 g/ha, three weeks after application
How it was run: as §1

[25] = test system: windgrass; test: Test Example 5: herbicidal effect by foliage application, plastic box (Table 20, symbol L); format: in vivo, windgrass (Apera spica-venti); conditions: foliage application, 320 g/ha, three weeks after application
How it was run: as §1

[26] = test system: blackgrass; test: Test Example 5: herbicidal effect by foliage application, plastic box (Table 20, symbol J); format: in vivo, blackgrass (Alopecurus myosuroides); conditions: foliage application, 320 g/ha, three weeks after application
How it was run: as §1

[27] = test system: Japanese bulrush; test: Test Example 2: herbicidal activity, application during weed generation under submerged conditions (Table 17, symbol B); format: in vivo, Japanese bulrush (Schoenoplectus juncoides); conditions: AAH 320 g/ha; application during weed generation, submerged conditions
How it was run: as §4

[28] = test system: southern crabgrass; test: Test Example 5: herbicidal effect by foliage application, plastic box (Table 20, symbol F); format: in vivo, southern crabgrass (Digitaria ciliaris); conditions: foliage application, 320 g/ha, three weeks after application
How it was run: as §1

[29] = test system: Italian ryegrass; test: Test Example 4: herbicidal effect by soil treatment (Table 19, symbol K); format: in vivo, Italian ryegrass (Lolium multiflorum); conditions: amount of applied herbicide 320 g/ha
How it was run: as §2

[30] = test system: rice flat sedge; test: Test Example 3: herbicidal effect by foliage application, Wagner pot (Table 18, symbol E); format: in vivo, rice flat sedge (Cyperus iria); conditions: 320 g/ha
How it was run: as §3

Cc1nn(C)c(=O)c(-c2c(-c3ccc4c(c3)OCC4)sc3ccccc23)c1O [1-085]
herbicidal effect grade, I: wild oat [1]: 4 (Herbicidal rate of 70% or more and less than 90%) | herbicidal effect rating, G: green foxtail [2]: 4 (Herbicidal rate of 70% or more and less than 90%) | herbicidal effect rating, R: persian speedwell [3]: 4 (Herbicidal rate of 70% or more and less than 90%) | herbicidal effect grade, R: persian speedwell [4]: 5 (Herbicidal rate of 90% or more (almost completely withered)) | herbicidal effect grade, P: chickweed [5]: 5 (Herbicidal rate of 90% or more (almost completely withered)) | herbicidal effect rating, F: southern crabgrass [6]: 5 (Herbicidal rate of 90% or more (almost completely withered)) | herbicidal effect grade, G: green foxtail [7]: 5 (Herbicidal rate of 90% or more (almost completely withered)) | herbicidal effect rating, M: velvetleaf [8]: 3 (Herbicidal rate of 40% or more and less than 70%) | herbicidal effect grade, Q: false cleavers [9]: 5 (Herbicidal rate of 90% or more (almost completely withered)) | herbicidal effect on H (barnyard grass), rating 0-5 [10]: 5 (Herbicidal rate of 90% or more (almost completely withered)) | herbicidal effect grade, O: lambsquarters [11]: 5 (Herbicidal rate of 90% or more (almost completely withered)) | herbicidal effect on D (Chinese sprangletop), rating 0-5 [12]: 4 (Herbicidal rate of 70% or more and less than 90%) | herbicidal effect rating, C: oval-leafed pondweed [13]: 2 (Herbicidal rate of 20% or more and less than 40%) | herbicidal effect grade, N: redroot pigweed [14]: 5 (Herbicidal rate of 90% or more (almost completely withered)) | herbicidal effect rating, O: lambsquarters [15]: 5 (Herbicidal rate of 90% or more (almost completely withered)) | herbicidal effect rating, A: late watergrass [16]: 1 (Herbicidal rate of 5% or more and less than 20%) | herbicidal effect rating, P: chickweed [17]: 4 (Herbicidal rate of 70% or more and less than 90%) | herbicidal effect grade, K: Italian ryegrass [18]: 5 (Herbicidal rate of 90% or more (almost completely withered)) | herbicidal effect rating, H: barnyard grass [19]: 4 (Herbicidal rate of 70% or more and less than 90%) | herbicidal effect rating, N: redroot pigweed [20]: 5 (Herbicidal rate of 90% or more (almost completely withered)) | herbicidal effect rating, I: wild oat [21]: 0 (Herbicidal rate of 5% or less (almost no effect)) | herbicidal effect rating, Q: false cleavers [22]: 4 (Herbicidal rate of 70% or more and less than 90%) | herbicidal effect grade, M: velvetleaf [23]: 5 (Herbicidal rate of 90% or more (almost completely withered)) | herbicidal effect grade, H: barnyard grass [24]: 5 (Herbicidal rate of 90% or more (almost completely withered)) | herbicidal effect grade, L: windgrass [25]: 5 (Herbicidal rate of 90% or more (almost completely withered)) | herbicidal effect grade, J: blackgrass [26]: 4 (Herbicidal rate of 70% or more and less than 90%) | herbicidal effect rating, B: Japanese bulrush [27]: 1 (Herbicidal rate of 5% or more and less than 20%) | herbicidal effect grade, F: southern crabgrass [28]: 5 (Herbicidal rate of 90% or more (almost completely withered)) | herbicidal effect rating, K: Italian ryegrass [29]: 5 (Herbicidal rate of 90% or more (almost completely withered)) | herbicidal effect on E (rice flat sedge), rating 0-5 [30]: 5 (Herbicidal rate of 90% or more (almost completely withered))
